We go through 2 substances from PMC4838890, “Dynamic and flexible H3K9me3 bridging via HP1β dimerization establishes a plastic state of condensed chromatin” (Nature Communications, 2016).

Assay [1] has as its system H3KC9me3 mononucleosome. Put plainly: ITC, H3KC9me3 mononucleosome. In kind it is binding, Xenopus laevis. The settings on record: for Kd: ITC, pH 7.5, 25°C, read-out: Kd (apparent dissociation constant). From the text: Mononucleosomes were reconstituted on a 187 bp DNA fragment containing the ‘601' sequence flanked on each site by a linker of 20 bp[55]. Oligonucleosomes were reconstituted on a 12 × 200 bp × 601 template. Plasmids carrying the respective inserts were purified using a Giga kit (Qiagen, Hilden, Germany). Templates for reconstitution were released from plasmids by restriction digest with BsoBI for mononucleosomes and a mix of DdeI, BfuCI, HaeII and EcoRI for oligonucleosomes. To separate vector backbone from DNA used for chromatin assembly stepwise precipitation with polyethylene glycol (PEG) 6000/0.5 M NaCl was carried out (final PEG concentration 2–9% and 20% (w/v)). DNA pellets were washed with 70% (v/v) ethanol and dissolved in water. Double stranded, short, biotinylated DNA linkers were ligated to the DNA template before chromatin reconstitution.
ITC measurements were performed on a iTC200 calorimeter (Microcal, Malvern, UK) at 25°C in binding buffer (10 mM triethanolamine (pH 7.5), 20 or 150 mM NaCl, 0.1 mM EDTA). Reaction heats were recorded by sequences of 37 injections of 1.8 mM hHP1β, spaced at 120 s intervals, into 250 μl of 60 μM H3 peptides, nucleosomes or oligonucleosomal arrays under constant stirring at 1,000 r.p.m. (injection #1–10: 0.5 μl each; injection #11–32: 1 μl each; injection #33–37: 2 μl each). Heats of dilution, obtained by the titration of hHP1β into buffer, were substracted from raw data before analysis. Raw data were integrated, normalized and the apparent heat change (Δq) of the reaction was plotted against the molecular ratio using the Origin software. For the determination of apparent enthalpy changes (ΔHapp), the molar association constant (KA), and the stoichiometry (n) of the interaction, non-linear least-square fitting of the Δq values was performed by the Origin software using a binding model of one set of identical binding sites.
Supplementary Table 1: Summary of conditions used in the different experiments of this study.
experiment result modification template Temp. [NaCl] [MgCl2] […]

Assay [2] relates to H3K9me0 oligonucleosomes. Nature of the assay: Chromatin sedimentation (clustering), H3K9me0 oligonucleosomes. In kind it is biochemical, Xenopus laevis. The settings on record: 150 mM NaCl, EtBr fluorescence, n=3. On the procedure:
Figure 3 hHP1β clusters oligonuclesomal arrays in dependence of H3K9me3. (a) Oligonucleosomes (2.5 nM) were incubated with increasing concentrations of hHP1β WT or I161A at 150 mM NaCl. DNA remaining in the supernatant after centrifugation was incubated with EtBr and measured by fluorescence reading. Data were normalized to amounts in absence of added protein. Averages of three independent experiments are plotted; error bars represent s.d.; n=3. (b) Analysis of the hydrodynamic radius of oligonucleosomes (10 nM; DNA labelled with ATTO 610) in the presence of increasing concentrations of hHP1β WT or I161A by FCS at 150 mM NaCl. For details on experimental setup see Supplementary Fig. 3. Error bars represent s.d.; n=3. (c) Oligonucleosomes were reconstituted after mixing H3K9me0 and H3K9me3 octamers at different ratio. Chromatin precipitation analysis at 150 mM NaCl was carried out with hHP1β WT at saturating concentration. Data are presented as in a. (d) Precipitation behaviour of oligonucleosomes (2.5 nM) was analysed at different concentrations of NaCl with hHP1β WT at saturating concentration. […] Precipitated material was analysed by western blotting. […] Complexes were fixed with 0.05% (v/v) glutaraldehyde, spotted on mica surfaces and analysed by scanning force microscopy. […] (h) Quantification of results representatively shown in g according to the classification on the top: A, extended; B, partially condensed; C, fully condensed; D; aggregates; n>50 for each condition.
For saturating conditions, 2.7 nM oligonucleosomes were incubated with 5 μM hHP1β proteins in 100 μl sedimentation buffer (10 mM triethanolamine (pH 7.5), 150 mM NaCl, 0.1 mM EDTA) for 1 h on ice. […] For quantification of chromatin DNA, the input and output samples were incubated with 40 μl 0.5 μg ml^−1 ethidium bromide and fluorescence was measured on a Plate CHAMELEON II fluorescence plate reader (Hidex, Turku, Finland) using a 360 nm (±5 nm) excitation filter and a 612 nm (±5 nm) emission filter. For each sample the ratio of DNA concentrations after and before centrifugation (output/input) was calculated. […]

Where two headings read alike, the source gives them in different places.

On to “hHP1β WT: recombinant human heterochromatin protein 1β (GenBank NM_001127228), 185 aa”, for which the “better binding at the higher compared with the lower salt concentration” value in assay [1] (150 mM versus 20 mM NaCl) is given as 2.7 fold. Also, the Kd was 59 ± 8 µM in assay [1] (20 mM NaCl) and 22 ± 8 µM in assay [1] (150 mM NaCl). The “chromatin clustering/aggregation, H3K9me0” value in assay [2] is “efficiently aggregated H3K9me3 but not H3K9me0 oligonucleosomes”; in assay [2] (listed as hHP1β), “No clustering of H3K9me0 chromatin”.
With “hHP1β I161A: CSD point mutant of hHP1β incapable of dimerization”, the Kd amounted to 223 ± 30 µM in assay [1] (20 mM NaCl) and 58 ± 17 µM in assay [1] (150 mM NaCl). For the same substance, the “chromatin clustering/aggregation, H3K9me0” value in assay [2] is reported as “neither the I161A mutant, nor the isolated CD or CSD had any effect on modified or unmodified chromatin”.
